The source of these data is patent US12679878B2, “CRF2 receptor agonists and their use in therapy” (SANOFI, priority 2020, dated 2026).

≈ marks a conversion by molar mass, not a printed value. Where two headings read alike, the source gives them in different places. Starred links: 1 amine or outer side, 2 acyl side, 3 side chain; linkers in the order of their positions; H or OH if unused. Non-standard residues stand in square brackets, D forms with d. Residues, ends and D or L forms follow the SMILES beside them. Groups on a side chain read outwards from the residue. *: point of attachment. C18 diacid = O=C(O)CCCCCCCCCCCCCCCCC(=O)*; γGlu = O=C(O)[C@H](CCC(=O)[*:2])N[*:1]; AEEA = NCCOCCOCC(=O)O; Aib = CC(C)(N)C(=O)O

Series [1] in a line: Solubility in buffer systems by UPLC-UV (Example 13). It counts as physicochemical. Put shortly: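 The supernatant was diluted 1:10 and quantified by UPLC-UV peak area against a reference standard curve, correcting for sequence-based extinction coefficients.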
The nature of series [2]: Chemical stability, purity loss by UPLC-UV after 28 days at 40° C. vs 5° C., pH 4.5 acetate buffer (Example 12). Type of series: physicochemical. As to conditions: 28 days 40° C. vs 5° C.; pH 4.5, 20 mM acetate buffer; 300 μM. Put shortly: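 300 μM compound (purity-corrected) in 20 mM acetate buffer, pH 4.5, stored 28 days at 5 and 40° C. Purity by UPLC-UV as compound peak area over total peak area. Value is the purity difference between 5° C. and 40° C. samples, relative to the 5° C. purity, in percent.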

The target in the next series is T1, CRF1R receptor (Homo sapiens, UniProt P34998).
T1 construct: host or cells: CHO-K1 clone 2
T1 sequence (P34998 24-415): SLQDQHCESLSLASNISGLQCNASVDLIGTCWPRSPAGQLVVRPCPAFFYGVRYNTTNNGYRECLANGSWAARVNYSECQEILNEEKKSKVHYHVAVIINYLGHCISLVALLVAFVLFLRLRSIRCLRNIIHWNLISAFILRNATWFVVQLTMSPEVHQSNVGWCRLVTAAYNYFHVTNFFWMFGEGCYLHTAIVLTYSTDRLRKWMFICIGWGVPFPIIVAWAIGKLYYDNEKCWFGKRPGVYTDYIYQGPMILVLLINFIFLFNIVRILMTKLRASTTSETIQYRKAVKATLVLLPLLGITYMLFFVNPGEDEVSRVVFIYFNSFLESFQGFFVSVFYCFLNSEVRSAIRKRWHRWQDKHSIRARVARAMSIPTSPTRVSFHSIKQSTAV
Kind of series: cAMP activity at anti-target CRF1R, CRF1R-overexpression CHO cell line (Example 9). It counts as cell-based. Particulars: CRF1R-overexpression CHO cell line; for EC50: 0% HSA; for Emax: read-out: Emax (%). Put shortly:
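cAMP accumulation was read by HTRF after 30 min at room temperature of compound treatment. Cells were cryopreserved CHO cells overexpressing CRF1R, plated at 2000/well in IBMX (2 mM)-containing HBSS/HEPES buffer with 0 or 0.1% HSA. Activity was normalized to 1000 nM UCN2 as 100%.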

A further series deals with T2, human CRF2α receptor (Homo sapiens, UniProt Q13324).
T2 construct: expressed in transfected cells; host or cells: TeloHEAC
T2 sequence (Q13324 1-411): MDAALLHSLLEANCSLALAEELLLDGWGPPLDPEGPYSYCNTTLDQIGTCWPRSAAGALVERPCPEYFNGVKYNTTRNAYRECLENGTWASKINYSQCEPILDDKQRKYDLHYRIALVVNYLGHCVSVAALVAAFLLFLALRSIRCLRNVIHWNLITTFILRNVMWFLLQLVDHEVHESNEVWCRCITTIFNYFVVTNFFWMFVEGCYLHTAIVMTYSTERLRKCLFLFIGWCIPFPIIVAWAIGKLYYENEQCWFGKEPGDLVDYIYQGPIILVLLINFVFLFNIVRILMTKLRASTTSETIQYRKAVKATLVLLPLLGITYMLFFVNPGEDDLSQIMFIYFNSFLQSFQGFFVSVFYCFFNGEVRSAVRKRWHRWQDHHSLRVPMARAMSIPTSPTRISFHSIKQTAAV
Put plainly: cAMP agonism at human CRF2 α receptor in TeloHEAC cells (Example 7). Type of series: cell-based. As to conditions: cAMP HTRF, TeloHEAC cells stably expressing human CRF2 α. In short, it runs like this: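 HTRF ratio 665/620 nm, read 1 h after lysis reagents, reports cAMP. Cells: thawed stocks, 2000/well, 30 min RT with compound in HBSS, 20 mM HEPES, 0 or 0.1% HSA, 2 mM IBMX. Activity normalised to UCN2 1000 nM = 100%; EC50 from half-maximal activation.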

The mark [3] stands for this setting: pH 4.5, Solubility in Buffer A [mg/ml].
The mark [4] stands for this setting: pH 4.5, Solubility in Buffer B [mg/ml].
Where [5] appears, read: pH 7.4, Solubility in Buffer C [mg/ml].
Where [6] appears, read: 0% HSA, read-out: EC50 [nM], 0% HSA.
The mark [7] stands for this setting: 0.1% HSA, read-out: EC50 [nM], 0.1% HSA.

On to `CC[C@H](C)[C@H](N)C(=O)N[C@H](C(=O)N[C@@H](CC(C)C)C(=O)N[C@@H](CO)C(=O)N[C@@H](CC(C)C)C(=O)N[C@@H](CC(=O)O)C(=O)N[C@@H](C(=O)N1CCC[C@H]1C(=O)N[C@H](C(=O)N[C@@H](CCCCN)C(=O)N[C@@H](CC(C)C)C(=O)N[C@@H](CCCCNC(=O)COCCOCCNC(=O)COCCOCCNC(=O)CC[C@H](NC(=O)CCCCCCCCCCCCCCCCC(=O)O)C(=O)O)C(=O)N[C@@H](CCC(N)=O)C(=O)N[C@H](C(=O)N[C@@H](CC(C)C)C(=O)N[C@@H](CC(C)C)C(=O)N[C@@H](CCCCN)C(=O)N[C@@H](CCC(N)=O)C(=O)N[C@@H](CCC(=O)O)C(=O)N[C@@H](CCCNC(=N)N)C(=O)N[C@@H](CCC(N)=O)C(=O)N[C@@H](CCCCN)C(=O)N[C@@H](CCCCN)C(=O)NC(C)(C)C(=O)N[C@@H](CCCNC(=N)N)C(=O)N[C@@H](CCC(N)=O)C(=O)N[C@@H](CCCCN)C(=O)N[C@@H](C)C(=O)N[C@@H](CCC(=O)O)C(=O)N[C@@H](CCCCN)C(=O)N[C@@H](CC(N)=O)C(=O)N[C@@H](CCCCN)C(=O)N[C@@H](CCC(N)=O)C(=O)N[C@H](C(=O)N[C@@H](CC(C)C)C(=O)N[C@@H](C)C(=O)N[C@@H](CCC(N)=O)C(=O)N[C@H](C(N)=O)C(C)C)[C@@H](C)CC)[C@@H](C)CC)[C@@H](C)CC)C(C)C)C(C)C` [compound 136] (H-IVLSLD[dV]PIKLK([AEEA-AEEA-γGlu-C18 diacid])QILLKQERQKK[Aib]RQKAEKNKQILAQV-NH2; N-terminus assumed), for which the figures for the solubility at 1 h in series [1] (setting [3]), in series [1] (setting [4]) and in series [1] (setting [5]) were above 8400 µg/mL, above 8600 µg/mL and 7800 µg/mL (≈ 1510 µM), respectively. In addition, the “Relative purity loss [%]” value in series [2] came out at 3.10%. In addition, the EC50 – broadly, the midpoint of the concentration-response curve – was above 1000 nM on CRF1R receptor, 0.05 nM on human CRF2α receptor (setting [6]) and 2.41 nM at human CRF2α receptor (setting [7]). Besides, the Emax (as a rule, the size of the effect at its maximum, as opposed to the concentration needed) at CRF1R receptor came out at 21.8%.
Turning to `CC[C@H](C)[C@H](N)C(=O)N[C@H](C(=O)N[C@@H](CC(C)C)C(=O)N[C@@H](CO)C(=O)N[C@@H](CC(C)C)C(=O)N[C@@H](CC(=O)O)C(=O)N[C@@H](C(=O)N1CCC[C@H]1C(=O)N[C@H](C(=O)N[C@@H](CCCCN)C(=O)N[C@@H](CC(C)C)C(=O)N[C@@H](CCCCNC(=O)COCCOCCNC(=O)COCCOCCNC(=O)CC[C@H](NC(=O)CCCCCCCCCCCCCCCCC(=O)O)C(=O)O)C(=O)N[C@@H](CCC(N)=O)C(=O)N[C@H](C(=O)N[C@@H](CC(C)C)C(=O)N[C@@H](CC(C)C)C(=O)N[C@@H](CCCCN)C(=O)N[C@@H](CCC(N)=O)C(=O)N[C@@H](CCC(=O)O)C(=O)N[C@@H](CCCNC(=N)N)C(=O)N[C@@H](CCC(N)=O)C(=O)N[C@@H](CCCCN)C(=O)N[C@@H](CCCCN)C(=O)N[C@@H](CCC(N)=O)C(=O)N[C@@H](CCCNC(=N)N)C(=O)N[C@@H](CCC(=O)O)C(=O)N[C@@H](CCC(N)=O)C(=O)N[C@@H](C)C(=O)N[C@@H](CCC(=O)O)C(=O)N[C@@H](CCCCN)C(=O)N[C@@H](CC(N)=O)C(=O)N[C@@H](CCCCN)C(=O)N[C@@H](CCC(N)=O)C(=O)N[C@H](C(=O)N[C@@H](CC(C)C)C(=O)N[C@@H](CCC(=O)O)C(=O)N[C@@H](CCC(N)=O)C(=O)N[C@H](C(N)=O)C(C)C)[C@@H](C)CC)[C@@H](C)CC)[C@@H](C)CC)C(C)C)C(C)C` [compound 137] (H-IVLSLD[dV]PIKLK([AEEA-AEEA-γGlu-C18 diacid])QILLKQERQKKQREQAEKNKQILEQV-NH2; N-terminus assumed), the solubility (in general, how much of the substance goes into solution per volume) at 1 h is above 8600 µg/mL in series [1] (setting [3]), above 8400 µg/mL in series [1] (setting [4]) and above 8700 µg/mL in series [1] (setting [5]). Also, in series [2], the “Relative purity loss [%]” value was determined as 4.80%. The figures for the EC50 at CRF1R receptor, on human CRF2α receptor (setting [6]) and on human CRF2α receptor (setting [7]) were above 1000 nM, 0.04 nM and 1.78 nM, respectively. For the same compound, at CRF1R receptor, the Emax was 22.5%.
On to `CC[C@H](C)[C@H](N)C(=O)N[C@H](C(=O)N[C@@H](CC(C)C)C(=O)N[C@@H](CO)C(=O)N[C@@H](CC(C)C)C(=O)N[C@@H](CC(=O)O)C(=O)N[C@@H](C(=O)N1CCC[C@H]1C(=O)N[C@H](C(=O)N[C@@H](CCCCN)C(=O)N[C@@H](CC(C)C)C(=O)N[C@@H](CCCCNC(=O)COCCOCCNC(=O)COCCOCCNC(=O)CC[C@H](NC(=O)CCCCCCCCCCCCCCCCC(=O)O)C(=O)O)C(=O)N[C@@H](CCC(N)=O)C(=O)N[C@H](C(=O)N[C@@H](CC(C)C)C(=O)N[C@@H](CC(C)C)C(=O)N[C@@H](CCCCN)C(=O)N[C@@H](CCC(N)=O)C(=O)N[C@@H](CCC(=O)O)C(=O)N[C@@H](CCCNC(=N)N)C(=O)N[C@@H](CCC(N)=O)C(=O)N[C@@H](CCCCN)C(=O)N[C@@H](CCCCN)C(=O)N[C@@H](CCC(N)=O)C(=O)N[C@@H](CCCNC(=N)N)C(=O)N[C@@H](CCC(N)=O)C(=O)N[C@@H](CCC(N)=O)C(=O)N[C@@H](C)C(=O)N[C@@H](CCC(=O)O)C(=O)N[C@@H](CCCCN)C(=O)N[C@@H](CC(N)=O)C(=O)N[C@@H](CCCCN)C(=O)N[C@@H](CCC(N)=O)C(=O)N[C@H](C(=O)N[C@@H](CC(C)C)C(=O)N[C@@H](C)C(=O)N[C@@H](CCC(N)=O)C(=O)N[C@H](C(N)=O)C(C)C)[C@@H](C)CC)[C@@H](C)CC)[C@@H](C)CC)C(C)C)C(C)C` [compound 139] (H-IVLSLD[dV]PIKLK([AEEA-AEEA-γGlu-C18 diacid])QILLKQERQKKQRQQAEKNKQILAQV-NH2; N-terminus assumed), for which the solubility at 1 h was above 9100 µg/mL in series [1] (setting [3]), above 8600 µg/mL in series [1] (setting [4]) and above 8800 µg/mL in series [1] (setting [5]). The “Relative purity loss [%]” value in series [2] stood at 3.05%. Further, the results for the EC50 on CRF1R receptor, on human CRF2α receptor (setting [6]) and at human CRF2α receptor (setting [7]) were above 1000 nM, 0.03 nM and 1.31 nM, respectively. For the same compound, the Emax at CRF1R receptor is 37.6%.
